target: T1, Serotonin 3 (5-HT3) receptor (Rattus norvegicus, UniProt P35563+Q9JJ16); assay: Rat 5-hydroxytryptamine 3 receptor (5-HT3) antagonist; assay type: functional
T1 sequence (P35563 whole entry): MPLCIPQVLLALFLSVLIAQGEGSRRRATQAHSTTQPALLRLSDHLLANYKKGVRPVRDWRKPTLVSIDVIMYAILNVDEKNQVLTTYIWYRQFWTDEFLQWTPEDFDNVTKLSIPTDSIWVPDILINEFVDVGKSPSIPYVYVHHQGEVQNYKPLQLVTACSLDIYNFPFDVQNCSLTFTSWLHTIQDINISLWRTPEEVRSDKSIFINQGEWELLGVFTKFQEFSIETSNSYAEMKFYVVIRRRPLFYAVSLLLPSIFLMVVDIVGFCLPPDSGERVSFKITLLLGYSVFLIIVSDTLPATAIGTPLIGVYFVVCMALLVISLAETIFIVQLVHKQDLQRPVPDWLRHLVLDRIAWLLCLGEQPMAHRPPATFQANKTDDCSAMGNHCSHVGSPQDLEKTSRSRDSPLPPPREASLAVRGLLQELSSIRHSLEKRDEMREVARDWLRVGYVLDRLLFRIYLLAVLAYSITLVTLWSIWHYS
T1 sequence (Q9JJ16 whole entry): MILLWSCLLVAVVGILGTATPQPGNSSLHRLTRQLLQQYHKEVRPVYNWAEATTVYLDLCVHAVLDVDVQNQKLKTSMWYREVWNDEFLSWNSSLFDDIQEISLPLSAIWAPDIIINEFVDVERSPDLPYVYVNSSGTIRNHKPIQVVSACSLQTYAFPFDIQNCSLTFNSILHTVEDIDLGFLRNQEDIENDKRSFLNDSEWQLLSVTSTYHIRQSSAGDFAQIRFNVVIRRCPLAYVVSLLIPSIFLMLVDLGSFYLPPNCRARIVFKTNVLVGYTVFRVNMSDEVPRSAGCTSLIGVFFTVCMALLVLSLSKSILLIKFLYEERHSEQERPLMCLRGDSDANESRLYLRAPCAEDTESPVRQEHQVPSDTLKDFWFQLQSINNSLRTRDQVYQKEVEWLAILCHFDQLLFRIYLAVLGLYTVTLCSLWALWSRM

| Structure (SMILES) | Ki |
| --- | --- |
| c1ccc2c3c(c(N4CCNCC4)nc2c1)CCCC3 | 0.1 nM |
| CN1CCN(c2nc3ccccc3c3c2CCC3)CC1 | 0.0708 nM |
| COc1cc2c(SCCN(C)C)nc3ccccc3c2c2ccccc12 | 10000 nM |
| CN1CCN(c2nc3ccccc3c3c2CN(C)CC3)CC1 | 3.16 nM |
| CCc1c(C)c(N2CCN(C)CC2)nc2ccccc12 | 0.537 nM |
| CN(C)CCSc1nc2ccccc2c2c1ccc1ccccc12 | 10000 nM |
| CN(C)CCSc1nc2ccccc2c2c1COc1ccccc1-2 | 10000 nM |
| CN1CCN(c2nc3ccccc3c3c2CSCC3)CC1 | 0.398 nM |
| c1ccc2c(c1)ccc1c(N3CCNCC3)nc3ccccc3c12 | 132 nM |
| CN1CCN(c2nc3ccccc3c3c2CCCC3)CC1 | 0.0977 nM |
| CCN1CCN(c2nc3ccccc3c3c2cc(OC)c2ccccc23)CC1 | 224 nM |
| CN(C)CCSc1nc2ccccc2c2c1CCc1ccccc1-2 | 10000 nM |
